Assay results: patent US8936807B2, “Use of the cathelicidin LL-37 and derivatives thereof for wound healing” (Lipopeptide AB, priority 2003, dated 2015)

Experiments:
HaCat cells [1] = assay: Proliferation of HaCat cells assessed by flowcytometry and Trypan-Blue; assay type: cell-based, human; settings: for Increased Proliferation (%): vs baseline
Method: HaCat cells were used for these experiments. HaCat cells are an immortalized human keratinocyte cell line (Boukamp et al., J Cell Biol 106:761-771, 1988), which is suitable for experimental keratinocyte research. HaCat cells were cultured in medium (DMEM, +10% FCS and PEST). Both types of cell cultures were treated with synthetic, bioactive LL-37 (lot YS 5253). […] Cells were harvested at different time-points (24 h, 48 h, 72 h and 96 h) and counted by flowcytometry (Becton-Dickinson) and stained by Trypan-Blue to evaluate viability. […] Proliferation and viability were also ascertained by measuring mitochondrial activity (WST-1, Roche, Cook et al. Anal Biochem 179:1-7, 1989).

Human Wound Fibroblast = assay: Proliferation and viability of human wound fibroblasts (WST-1); assay type: cell-based; settings: 48 Hours; for Increased Proliferation (%): vs control
Excerpt: (§1) The peptide LL-37 used in this and following tests was as described in Example 1 (lot 971/26). The fibroblasts, a type of stromal cells, were obtained from injured and uninjured skin in patients with chronic leg ulcers due to venous insufficiency. Punch-biopsies (4-mm) were taken from the wound margin including 50% of the epithelialized area and from uninjured skin in the knee region. Individuals with a history of diabetes mellitus, arterial insufficiency or chronic inflammatory disease were excluded. Patients with signs of eczema in the ulcer margin, clinical signs of infection or undergoing systemic or topical antibiotic treatment at the time for biopsy were also excluded. Patients included were all treated with inert local dressings and standard compression bandaging.
(§2) Fibroblast were put in culture using explant technique (Hehenberger et al., Cell Biochem Funct 15:197-201, 1997). Fibroblasts were plated in 96 well plates (Falcon, USA) at the concentration of 2000 cells per well. Cells were plated at −48 hours and stimulated with different concentrations of synthetic LL-37 peptide by hour 0. The testing was done in one experiment with 6 wells in each condition. Proliferation and viability were ascertained by measuring mitochondrial activity (WST-1, Roche) after 24 h and 48 h. Increase in cell proliferation (Proliferation Index) is calculated in comparison with baseline (Control=0 μg/ml). Mean values from six samples per condition in one experiment are presented.

Human Normal Fibroblast = assay: Proliferation and viability of human normal fibroblasts (WST-1); assay type: cell-based; settings: 10% serum, 48 Hours; for Increased Proliferation (%): vs control
Excerpt: as §1, §2

HaCat cells [2] = assay: Proliferation of HaCat cells assessed by 3H-Thymidine incorporation; assay type: cell-based, human; settings: 10% serum, 96 h; for Increased Proliferation (%): vs control 0 μg/ml
Method: HaCat cells were cultured in medium (DMEM, +10% FCS and PEST). HaCaT cells were plated in 96 well plates (Falcon, USA) at the concentration of 2000 cells per well. Cells were plated at −48 hours and stimulated with different concen-trations of synthetic LL-37, LL-36, and LL-38 peptide by hour 0 and after 48 hours.
The testing was done in one experiment with 6 wells in each condition. […] of ^3H-Thymidine (THYMIDINE, [METHYL-^3H]-740.0 GBq/mmol (20.00 Ci/mmol) 1.0 ml of Ethanol:Water, 7:3, Perkin Elmer Life Sciences Inc. Boston Mass., USA) was added to each well and incubated for 12-17 hours. Proliferation was evaluated by ^3H-Thymidine incorporation a liquid scintilator (MicroBeta Perkin Elmer Life Sciences Inc. Boston Mass., USA) after 72 and 96 hours.

[3] = Storage of the CD samples for one month at 4° C.; assay type: physicochemical
Method: Samples for circular dichroism (CD) measurements were prepared in 10 mM aqueous phosphate buffer solution, pH 7.0, containing 200 ppm LL-37 (as the trifluoroacetate, lot 971/26), with and without 0.40% CPL-Galactolipid. The samples, 20 ml in 50 ml glass flasks, were vigorously shaken with an ST mixer (type B1, E. Büchler, Tübingen) set at 7.5 (corresponding to an approximate frequency of 220/min) for 2 h. They were then allowed to equilibrate and settle over night at 2-8° C.
An anionic synthetic phospholipid, palmitoyl-oleoyl-phosphatidylglycerol (POPG; Sigma-Aldrich, P6956) was used as a reference and tested using the same experimental conditions as described above.

[4] = LL-37 25 μg/ml, 10% serum, 96 h
[5] = LL-37 50 μg/ml, 10% serum, 96 h
[6] = LL-37 100 μg/ml, 2% serum, 96 h
[7] = LL-37 100 μg/ml, 10% serum, 96 h
[8] = LL-37 100 μg/ml, no lipid, 2% serum, 72 h
[9] = LL-37 100 μg/ml, no lipid, 10% serum, 72 h
[10] = LL-37 100 μg/ml, with lipid 0.2%, 2% serum, 72 h
[11] = LL-37 100 μg/ml, with lipid 0.2%, 10% serum, 72 h
[12] = LL-37 25 μg/ml, no lipid, 10% serum
[13] = LL-37 50 μg/ml, no lipid, 10% serum
[14] = LL-37 100 μg/ml, no lipid, 10% serum
[15] = LL-37 100 μg/ml, with lipid 0.2%, 2% serum

LLGDFFRKSKEKIGKEFKRIVQRIKDFLRNLVPRTES [LL-37]
Number of Cells (Mean) (HaCat cells [1]; LL-37 25 μg/ml, 2% serum, 96 h): 32130
Trypan Blue + (%) (HaCat cells [1]; LL-37 25 μg/ml, 2% serum, 96 h): <1%
Increased Proliferation (%) (HaCat cells [1]; LL-37 25 μg/ml, 2% serum, 96 h): 0%
Number of Cells (Mean) (HaCat cells [1]; [4]): 36470
Trypan Blue + (%) (HaCat cells [1]; [4]): <1%
Increased Proliferation (%) (HaCat cells [1]; [4]): 13%
Number of Cells (Mean) (HaCat cells [1]; LL-37 50 μg/ml, 2% serum, 96 h): 53620
Trypan Blue + (%) (HaCat cells [1]; LL-37 50 μg/ml, 2% serum, 96 h): 30-50%
Increased Proliferation (%) (HaCat cells [1]; LL-37 50 μg/ml, 2% serum, 96 h): Cytotoxic effect
Number of Cells (Mean) (HaCat cells [1]; [5]): 40950
Trypan Blue + (%) (HaCat cells [1]; [5]): <1%
Increased Proliferation (%) (HaCat cells [1]; [5]): 27%
Number of Cells (Mean) (HaCat cells [1]; [6]): 15120
Trypan Blue + (%) (HaCat cells [1]; [6]): 100%
Increased Proliferation (%) (HaCat cells [1]; [6]): Cytotoxic effect
cytotoxic effect when lipid was added (in words) (HaCat cells [1]; LL-37 100 μg/ml, 2% serum, lipid added): completely abolished
Number of Cells (Mean) (HaCat cells [1]; [7]): 66430
Trypan Blue + (%) (HaCat cells [1]; [7]): <1%
Increased Proliferation (%) (HaCat cells [1]; [7]): 100%
Trypan Blue staining (in words) (HaCat cells [1]; LL-37 100 μg/ml, medium containing 2% FCS): all of the keratinocytes became positive with Trypan Blue staining
Number of Cells (Mean) (HaCat cells [1]; [8]): 150500
Trypan Blue + (%) (HaCat cells [1]; [8]): 100%
Increased Proliferation (%) (HaCat cells [1]; [8]): Cytotoxic effect
Number of Cells (Mean) (HaCat cells [1]; [9]): 88853
Trypan Blue + (%) (HaCat cells [1]; [9]): <1%
Increased Proliferation (%) (HaCat cells [1]; [9]): 61%
Number of Cells (Mean) (HaCat cells [1]; [10]): 87360
Trypan Blue + (%) (HaCat cells [1]; [10]): <1%
Increased Proliferation (%) (HaCat cells [1]; [10]): 58%
Number of Cells (Mean) (HaCat cells [1]; [11]): 91980
Trypan Blue + (%) (HaCat cells [1]; [11]): <1%
Increased Proliferation (%) (HaCat cells [1]; [11]): 66%
proliferation of HaCat cells (in words) (HaCat cells [1]; LL-37 25-100 μg/ml, media with 10% FCS): increases proliferation in a concentration-dependent manner
Absorbance (Human Wound Fibroblast; [12]): 1.171
Increased Proliferation (%) (Human Wound Fibroblast; [12]): 49%
Absorbance (Human Wound Fibroblast; [13]): 1.073
Increased Proliferation (%) (Human Wound Fibroblast; [13]): 37%
Absorbance (Human Wound Fibroblast; [14]): 0.955
Increased Proliferation (%) (Human Wound Fibroblast; [14]): 22%
Absorbance (Human Wound Fibroblast; [15]): 0.960
Increased Proliferation (%) (Human Wound Fibroblast; [15]): 22%
Absorbance (Human Normal Fibroblast; LL-37 25 μg/ml): 0.597
Increased Proliferation (%) (Human Normal Fibroblast; LL-37 25 μg/ml): 7%
Absorbance (Human Normal Fibroblast; LL-37 50 μg/ml): 0.626
Increased Proliferation (%) (Human Normal Fibroblast; LL-37 50 μg/ml): 12%
Absorbance (Human Normal Fibroblast; LL-37 100 μg/ml): 0.669
Increased Proliferation (%) (Human Normal Fibroblast; LL-37 100 μg/ml): 19%
Counts Per Minute (Mean) (HaCat cells [2]; LL-37 1.00 μg/ml): 75445 Counts Per Minute
Increased Proliferation (%) (HaCat cells [2]; LL-37 1.00 μg/ml): 43%
Counts Per Minute (Mean) (HaCat cells [2]; LL-37 5.00 μg/ml): 102353 Counts Per Minute
Increased Proliferation (%) (HaCat cells [2]; LL-37 5.00 μg/ml): 94%
Counts Per Minute (Mean) (HaCat cells [2]; LL-37 10.00 μg/ml): 73548 Counts Per Minute
Increased Proliferation (%) (HaCat cells [2]; LL-37 10.00 μg/ml): 39%
Counts Per Minute (Mean) (HaCat cells [2]; LL-37 25.00 μg/ml): 76510 Counts Per Minute
Increased Proliferation (%) (HaCat cells [2]; LL-37 25.00 μg/ml): 45%
Counts Per Minute (Mean) (HaCat cells [2]; LL-37 50.00 μg/ml): 65119 Counts Per Minute
Increased Proliferation (%) (HaCat cells [2]; LL-37 50.00 μg/ml): 23%
appearance after storage ([3]; LL-37 with POPG): partially separated, with sediments on the bottom of the container
appearance after storage ([3]; LL-37 with galactolipid): redispersed to a fine dispersion by gentle agitation
